Experimental data published in the METLIN SMRT retention time set (Domingo-Almenara et al. 2019).

Experiment: gradient 5% acetonitrile 3 min, to 50% in 2 min, to 85% in 15 min, held 3 min, 100 µL/min
Conditions: column: Zorbax Extend-C18 2.1 x 50 mm; eluents: water / acetonitrile, 0.1% formic acid
In short: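 A Zorbax Extend-C18 column (2.1 × 50 mm, 1.8 μm) run at 100 μL/min with water and acetonitrile, both containing 0.1% formic acid, separated mixtures of ~100 pure standards. The HPLC was coupled to a quadrupole time-of-flight mass spectrometer operated in positive and negative ionization mode, with dead and dwell volumes of 40 μL and 900 μL. Each retention time was taken from a computationally picked adduct peak that was then manually inspected.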

Row | RP-LC retention time [s] | SMILES
1 | 920 | Cc1ccc(S(=O)(=O)[C@H]2CS(=O)(=O)C[C@@H]2N2CCN(c3ccccc3)CC2)cc1
2 | 710 | COc1ccc(S(=O)(=O)N2CCc3nn(C)c(=O)n3CC2)cc1Cl
3 | 691 | CC(=O)Nc1ccc(C2(C(=O)NCc3ccco3)CCC2)cc1
4 | 642 | Cc1ccn2cc(-c3ccc(NS(=O)(=O)c4ccccc4Cl)cc3)nc2n1
5 | 843 | CSc1cccc(NC(=O)N2CCC(CC(=O)NCc3cccc(F)c3)CC2)c1
6 | 786 | Cc1ccc(-c2nc3nc(C)cc(C)n3c2Nc2ccc(Cl)cc2)cc1
7 | 856 | CCC(C)NC(=O)CCn1c(=O)c2ccccc2n2c(=O)n(Cc3ccccc3)nc12 (stereo unspecified)
8 | 894 | O=C(NCC(=O)N1CCc2ccccc21)Nc1cccc(Br)c1
9 | 603 | CCN1CCN(c2cc(C)c3cc(NC(=S)N4CCN(c5ccccc5)CC4)ccc3n2)CC1
10 | 627 | CN1CCN(C(=O)c2cc3c(s2)CCN(C(=O)c2ccc(Cl)cc2)C3)CC1
11 | 586 | CC(C)N1C[C@H](O)C[C@H]1c1nnc2n1CCN(C(=O)c1ccc3ccccc3n1)C2
12 | 626 | COCCCNC(=O)C1CCN(C(=O)c2ncn3c2COC(c2ccc(F)cc2)C3)CC1 (stereo unspecified)
13 | 878 | O=C(NC(c1ccccc1)c1nnc(N2CCCCC2)o1)C1CCCCC1 (stereo unspecified)
14 | 686 | O=C1NCCCn2cc(S(=O)(=O)NCc3ccc(F)cc3Cl)cc21
15 | 697 | O=C(Nc1ccc(F)cc1)Nc1cccc(-c2ccc(N3CCOCC3)nn2)c1
16 | 887 | CCOc1ccccc1NC(=O)CN1C(=O)C2CCCCN2c2ccc(S(=O)(=O)N(C)C)cc21 (stereo unspecified)
17 | 660 | CN1CCC(N2CCN(S(=O)(=O)c3cc(-c4nc(C(C)(C)C)cs4)cs3)CC2)CC1
18 | 818 | CN1CCN(C2=Cc3ccccc3Oc3ccc(Cl)cc32)CC1

Row | RP-LC retention time [s] | SMILES
19 | 880 | Cc1cc(C)cc(NC(=O)Cc2csc3nc(-c4ccccc4)cn23)c1
20 | 664 | O=C(Nc1ccc(-c2cn3cccnc3n2)cc1)c1cccc(Cl)c1
21 | 709 | CS(=O)(=O)N1CCC(OC2CCN(C(=O)Nc3ccccc3)CC2)CC1
22 | 935 | CCCCC(C)C(=O)NC1CCN(C2=NS(=O)(=O)C(c3ccc(C)cc3)=C2C)CC1 (stereo unspecified)
23 | 647 | COc1cccc(-n2c(CN3CCN(c4ccccn4)CC3)nc3ccc([N+](=O)[O-])cc3c2=O)c1
24 | 1080 | Cc1ccc(Nc2nc(-c3ccc(Br)cc3)cs2)nc1
25 | 754 | O=C(Cc1c[nH]c2ccccc12)Nc1cc(-c2ccccn2)no1
26 | 748 | CN(c1nccn2c(=O)n(CC(=O)Nc3ccccc3F)nc12)C1CCCCC1
27 | 981 | CCC(C)NC(=O)N1CCN(c2nc3ccccc3n(Cc3ccccc3)c2=O)CC1 (stereo unspecified)
28 | 802 | Cc1ccc(N(Cc2nc3nc(C)cc(C)n3n2)C(=O)c2cccs2)cc1
29 | 990 | Cc1ccc(-c2ccc(=O)n(Cc3nc(-c4cccs4)no3)n2)cc1
30 | 718 | O=C([C@@H]1CC(F)(F)CN1C(=O)CCn1c(=O)oc2ccccc21)N1CCCC1
31 | 1150 | Cc1ccccc1Nc1c(-c2cccc(Br)c2)nc2ccc(Br)cn12
32 | 834 | CC1(C(=O)NC2CCCC2)CN(S(C)(=O)=O)CC(=O)N1Cc1ccc(Cl)cc1 (stereo unspecified)
33 | 990 | CCc1ccccc1NC(=O)Cn1c(=O)cc(-c2nc(C3CC3)no2)c2ccccc21
34 | 624 | O=S(=O)(c1cccc2cccnc12)N1CCCn2nc(-c3cccnc3)cc2C1
35 | 901 | Cc1cccc(N2CCN(C(=O)c3cn(-c4ccc(NC(=O)C5CC5)cn4)cn3)CC2)c1C
36 | 885 | OC(CN1CCN(c2cccc(Cl)c2)CC1)C(c1ccccc1)c1ccccc1 (stereo unspecified)

Further lines, the molecule ahead of its results:

Row | SMILES | RP-LC retention time [s]
37 | Cc1ccc(NC(=O)Nc2nccn(-c3ccc(C)c(C)c3)c2=O)cc1C | 1150
38 | COC[C@@H]1[C@H](C(=O)NCCC(C)C)CCC(=O)N1C | 643
39 | Clc1ccccc1-c1noc(Cc2nc(-c3ccccc3)cs2)n1 | 1180
40 | Cc1scc2nc(C(=O)Nc3cccc(F)c3)nc(N3CCCC3)c12 | 567
41 | O=C(c1cnccn1)N1[C@H]2CC[C@@H]1c1cnc(-c3ccccc3)nc1C2 | 807
42 | Cc1ccc(CN2CCC(n3c(C)cnc3-c3cccnc3)C2)s1 (stereo unspecified) | 546
43 | Cc1ccc2c(=O)c3c([nH]c2c1C)CCN(CC(=O)Nc1ccc(F)cc1F)C3 | 615
44 | CCN(CC)c1nc(-c2cccc(C)c2)nnc1C | 719
45 | CC(C)CCNC(=O)N1CCN(Cc2nc3cc(C(=O)N(C)C)ccc3o2)CC1 | 614
46 | CCOc1ccc(NC(=O)CNC(=O)C2CCCCC2)cc1 | 733
47 | O=C(C1CCCO1)N1CCN(c2nc(CN3CCCCC3)cs2)CC1 (stereo unspecified) | 579
48 | COCC(C)NC(=O)c1cc2c(s1)N(CC1CC1)CCCC2 (stereo unspecified) | 976
49 | CCN(CC)C(=O)Nc1ccc(C)c(Cl)c1 | 827
50 | CC(C)CCN1CCC(C2CCN(C(=O)c3ccncc3)C2)CC1 (stereo unspecified) | 556
51 | Cc1cc(=O)n(Cc2cccc(Br)c2)c(Nc2ccc(F)c(F)c2)n1 | 1270
52 | CC1=C(CO)C(=O)O[C@@H]([C@@H](C)[C@H]2CCC3[C@@H]4C[C@H]5O[C@]56[C@@H](O)C=CC(=O)[C@]6(C)C4CC[C@@]32C)C1 (stereo partly specified) | 759
53 | O=S(=O)(c1cc(-c2nnc(C3CC3)o2)co1)N1CCCCC1 | 839
54 | Cc1cc(C)nc(SCc2ccc(C(=O)NCCc3c[nH]c4ccccc34)o2)n1 | 894
55 | CCOC(=O)c1c(C)[nH]c(CCC(=O)NCCc2c[nH]c3ccc(OC)cc23)c1C | 837
56 | CCn1ccc2sc(C)c(C(=O)NC(C)c3ccc(C)cc3C)c2c1=O (stereo unspecified) | 975
57 | COc1ccc2[nH]cc(CCNC(=O)c3ccc(SC)cc3OC)c2c1 | 865
58 | COCCN1C(=O)[C@H]2CN(Cc3ccc(OC)c(OC)c3OC)C[C@H]2C1=O | 799
59 | CCCn1c2ccccc2c2nnc(SC(CC)C(=O)Nc3nc(-c4ccccc4)cs3)nc21 (stereo unspecified) | 1230
60 | CC(C)NCCCn1c(Sc2cc3c(cc2I)OCO3)nc2c(N)ncnc21 | 592
61 | COc1cccc(-c2cc(=O)n3c4ccccc4n(CC(=O)NCc4ccco4)c3n2)c1 | 864
62 | COc1ccc(CC(=O)N2C[C@@H]3C[C@H]2C[C@@H]3NC(=O)c2cccs2)cc1Cl | 764
63 | CCOc1ccc(-c2csc3c(=O)n(Cc4ccncc4)cnc23)cc1OCC | 693
64 | Cc1nc(-c2ccc(Cl)cc2)oc1COC(C)(C)C(=O)O | 909
65 | O=C(Cc1ccc(F)cc1)Nc1ccc(-c2ccc3nncn3n2)cc1 | 676
66 | Cc1cc(C)cc(Nc2c(-c3cc(Br)ccc3O)nc3ncccn23)c1 | 1140
